Oligonucleotides are written 5' to 3', each unit as a sugar letter and its base; * is a phosphorothioate linkage, no mark a phosphodiester; rarer units and linkages stand in square brackets, end groups in braces. Plain capitals give the bases only. d = 2'-deoxy (DNA); r = 2'-OH (RNA)
Each substance was assayed against UBE2M (assay: reporter assay of Huesken 2005). Settings: siRNA.
Also: test concentration or dose not given here.

Substance	normalised inhibition (eCFP-eYFP dual reporter) [%]
sense rArArGrArGrUrGrGrGrArArGrUrUrUrGrUrGrUdTdT / antisense rArCrArCrArArArCrUrUrCrCrCrArCrUrCrUrUdGdT	85.1
sense rArCrGrArGrCrUrGrArArCrCrUrGrCrCrCrArAdTdT / antisense rUrUrGrGrGrCrArGrGrUrUrCrArGrCrUrCrGrUdTdT	66
sense rArCrGrArUrArArArCrUrCrCrArUrArArUrUrUdTdT / antisense rArArArUrUrArUrGrGrArGrUrUrUrArUrCrGrUdAdA	82.2
sense rArCrGrUrCrUrGrCrCrUrCrArArCrArUrCrCrUdTdT / antisense rArGrGrArUrGrUrUrGrArGrGrCrArGrArCrGrUdTdG	80.4
sense rArGrArArCrArArCrCrGrGrCrGrGrCrUrGrUrUdTdT / antisense rArArCrArGrCrCrGrCrCrGrGrUrUrGrUrUrCrUdGdC	61.2
sense rArGrArArGrArArGrGrArGrGrArGrGrArGrUrCdTdT / antisense rGrArCrUrCrCrUrCrCrUrCrCrUrUrCrUrUrCrUdGdC	59.4
sense rArGrCrArGrCrArArGrArArGrGrCrGrUrCrGrGdTdT / antisense rCrCrGrArCrGrCrCrUrUrCrUrUrGrCrUrGrCrUdGdC	53
sense rArGrCrUrGrArArCrCrUrGrCrCrCrArArGrArCdTdT / antisense rGrUrCrUrUrGrGrGrCrArGrGrUrUrCrArGrCrUdCdG	71.8
sense rArGrGrArCrUrGrGrArArGrCrCrArGrUrCrCrUdTdT / antisense rArGrGrArCrUrGrGrCrUrUrCrCrArGrUrCrCrUdCdT	54.1
sense rArGrGrArGrGrArGrGrArGrUrCrGrGrCrGrGrGdTdT / antisense rCrCrCrGrCrCrGrArCrUrCrCrUrCrCrUrCrCrUdTdC	41.7
sense rArGrGrCrCrGrCrArGrArGrGrUrCrCrUrGrCrAdTdT / antisense rUrGrCrArGrGrArCrCrUrCrUrGrCrGrGrCrCrUdCdC	65.4
sense rArGrGrCrGrUrCrGrGrCrGrGrCrGrCrArGrCrUdTdT / antisense rArGrCrUrGrCrGrCrCrGrCrCrGrArCrGrCrCrUdTdC	51.7
sense rArGrGrGrCrArArCrGrUrCrUrGrCrCrUrCrArAdTdT / antisense rUrUrGrArGrGrCrArGrArCrGrUrUrGrCrCrCrUdCdG	79.5
sense rArGrUrCrCrUrUrArCrGrArUrArArArCrUrCrCdTdT / antisense rGrGrArGrUrUrUrArUrCrGrUrArArGrGrArCrUdGdG	60.6
sense rArGrUrCrGrGrCrGrGrGrCrGrGrCrArCrCrArAdTdT / antisense rUrUrGrGrUrGrCrCrGrCrCrCrGrCrCrGrArCrUdCdC	73.6
sense rArGrUrGrUrGrArGrArCrArArUrGrGrUrCrUrAdTdT / antisense rUrArGrArCrCrArUrUrGrUrCrUrCrArCrArCrUdTdC	92.1
sense rArUrCrCrArGrArArGrGrArCrArUrArArArCrGdTdT / antisense rCrGrUrUrUrArUrGrUrCrCrUrUrCrUrGrGrArUdCdC	56.4
sense rArUrCrUrCrUrUrCrUrUrGrGrArGrCrCrCrArAdTdT / antisense rUrUrGrGrGrCrUrCrCrArArGrArArGrArGrArUdAdC	77.1
sense rArUrGrGrUrCrUrArUrCrArCrCrCrCrArArCrAdTdT / antisense rUrGrUrUrGrGrGrGrUrGrArUrArGrArCrCrArUdTdG	71.3
sense rCrArArCrCrCrCrGrArGrGrArCrCrCrArCrUrGdTdT / antisense rCrArGrUrGrGrGrUrCrCrUrCrGrGrGrGrUrUrGdGdG	62.8
sense rCrArArUrGrGrUrCrUrArUrCrArCrCrCrCrArAdTdT / antisense rUrUrGrGrGrGrUrGrArUrArGrArCrCrArUrUrGdTdC	86.1
sense rCrArCrCrCrCrArArCrArUrUrGrArCrCrUrCrGdTdT / antisense rCrGrArGrGrUrCrArArUrGrUrUrGrGrGrGrUrGdAdT	62.5
sense rCrArGrCrUrUrCrUrCrArGrArUrCrCrArGrArCdTdT / antisense rGrUrCrUrGrGrArUrCrUrGrArGrArArGrCrUrGdAdT	79.3
sense rCrArUrGrCrGrGrGrGrUrGrGrCrUrArCrArUrCdTdT / antisense rGrArUrGrUrArGrCrCrArCrCrCrCrGrCrArUrGdGdA	67.7
sense rCrCrGrCrArGrArGrGrUrCrCrUrGrCrArGrArAdTdT / antisense rUrUrCrUrGrCrArGrGrArCrCrUrCrUrGrCrGrGdCdC	67.1
sense rCrCrUrGrArUrGrArGrGrGrCrUrUrCrUrArCrAdTdT / antisense rUrGrUrArGrArArGrCrCrCrUrCrArUrCrArGrGdAdC	77.9

Substance	normalised inhibition (eCFP-eYFP dual reporter) [%]
sense rCrGrArGrCrUrGrArArCrCrUrGrCrCrCrArArGdTdT / antisense rCrUrUrGrGrGrCrArGrGrUrUrCrArGrCrUrCrGdTdT	71.9
sense rCrGrGrCrGrGrCrGrCrArGrCrUrGrCrGrGrArUdTdT / antisense rArUrCrCrGrCrArGrCrUrGrCrGrCrCrGrCrCrGdAdC	69.9
sense rCrGrGrGrGrUrGrGrCrUrArCrArUrCrGrGrCrUdTdT / antisense rArGrCrCrGrArUrGrUrArGrCrCrArCrCrCrCrGdCdA	54.3
sense rCrUrArCrArArGrArGrUrGrGrGrArArGrUrUrUdTdT / antisense rArArArCrUrUrCrCrCrArCrUrCrUrUrGrUrArGdAdA	87.3
sense rCrUrGrArArCrArArGrGrArGrGrCrCrGrCrArGdTdT / antisense rCrUrGrCrGrGrCrCrUrCrCrUrUrGrUrUrCrArGdTdG	68.6
sense rCrUrGrCrArGrArArCrArArCrCrGrGrCrGrGrCdTdT / antisense rGrCrCrGrCrCrGrGrUrUrGrUrUrCrUrGrCrArGdGdA	64.1
sense rCrUrGrGrUrCrArUrCrUrGrUrCrCrUrGrArUrGdTdT / antisense rCrArUrCrArGrGrArCrArGrArUrGrArCrCrArGdCdT	76.7
sense rCrUrUrCrArArGrCrUrGrGrUrCrArUrCrUrGrUdTdT / antisense rArCrArGrArUrGrArCrCrArGrCrUrUrGrArArGdTdT	77
sense rCrUrUrCrUrArCrArArGrArGrUrGrGrGrArArGdTdT / antisense rCrUrUrCrCrCrArCrUrCrUrUrGrUrArGrArArGdCdC	75.9
sense rCrUrUrCrUrCrArGrArUrCrCrArGrArCrGrArCdTdT / antisense rGrUrCrGrUrCrUrGrGrArUrCrUrGrArGrArArGdCdT	65.6
sense rCrUrUrCrUrUrGrGrArGrCrCrCrArArCrCrCrCdTdT / antisense rGrGrGrGrUrUrGrGrGrCrUrCrCrArArGrArArGdAdG	61.3
sense rCrUrUrGrGrArGrCrCrCrArArCrCrCrCrGrArGdTdT / antisense rCrUrCrGrGrGrGrUrUrGrGrGrCrUrCrCrArArGdAdA	64.5
sense rGrArCrArArUrGrGrUrCrUrArUrCrArCrCrCrCdTdT / antisense rGrGrGrGrUrGrArUrArGrArCrCrArUrUrGrUrCdTdC	61.8
sense rGrArGrGrArGrUrCrGrGrCrGrGrGrCrGrGrCrAdTdT / antisense rUrGrCrCrGrCrCrCrGrCrCrGrArCrUrCrCrUrCdCdT	59.9
sense rGrArGrUrCrGrGrCrGrGrGrCrGrGrCrArCrCrAdTdT / antisense rUrGrGrUrGrCrCrGrCrCrCrGrCrCrGrArCrUrCdCdT	53
sense rGrArUrArUrCrArGrCrUrUrCrUrCrArGrArUrCdTdT / antisense rGrArUrCrUrGrArGrArArGrCrUrGrArUrArUrCdAdC	60.5
sense rGrArUrGrArGrGrGrCrUrUrCrUrArCrArArGrAdTdT / antisense rUrCrUrUrGrUrArGrArArGrCrCrCrUrCrArUrCdAdG	82.7
sense rGrCrArGrArGrGrUrCrCrUrGrCrArGrArArCrAdTdT / antisense rUrGrUrUrCrUrGrCrArGrGrArCrCrUrCrUrGrCdGdG	69.9
sense rGrCrArGrCrArGrCrArArGrArArGrGrCrGrUrCdTdT / antisense rGrArCrGrCrCrUrUrCrUrUrGrCrUrGrCrUrGrCdCdC	61
sense rGrCrCrArGrUrCrCrUrUrArCrGrArUrArArArCdTdT / antisense rGrUrUrUrArUrCrGrUrArArGrGrArCrUrGrGrCdTdT	68.5
sense rGrGrArCrCrCrArCrUrGrArArCrArArGrGrArGdTdT / antisense rCrUrCrCrUrUrGrUrUrCrArGrUrGrGrGrUrCrCdTdC	63.1
sense rGrGrCrCrArGrGrGrUrUrArCrCrCrGrCrArUrGdTdT / antisense rCrArUrGrCrGrGrGrUrArArCrCrCrUrGrGrCrCdCdA	73.8
sense rGrGrCrCrGrCrArGrArGrGrUrCrCrUrGrCrArGdTdT / antisense rCrUrGrCrArGrGrArCrCrUrCrUrGrCrGrGrCrCdTdC	66.4
sense rGrGrCrCrUrGrCrArGrUrArUrCrUrCrUrUrCrUdTdT / antisense rArGrArArGrArGrArUrArCrUrGrCrArGrGrCrCdAdT	80.2
sense rGrGrCrGrGrCrGrCrArGrCrUrGrCrGrGrArUrCdTdT / antisense rGrArUrCrCrGrCrArGrCrUrGrCrGrCrCrGrCrCdGdA	71.7
sense rGrGrCrGrGrCrUrGrUrUrUrGrArGrCrArGrArAdTdT / antisense rUrUrCrUrGrCrUrCrArArArCrArGrCrCrGrCrCdGdG	76.6

From the OligoGym collection
